Results: patent US20200055817A1 (AbbVie Deutschland GmbH & Co. KG, priority 2016, published 2020)

Legend:
Assay type in all cases: cell-based
[1] = molecular target: T1, human EDG1 (S1PR1) receptor (Homo sapiens, UniProt P21453); experiment: Aequorin assay, agonist potency, CHO-A21-Edg1#17 cells; conditions: agonist mode, aequorin luminescence; read-out: S1P1 EC50
T1 construct: expressed in transfected cells; host or cells: CHO-A21-Edg1#17 (CHO clone co-expressing mitochondrial aequorin and chimaeric Gaqi5)
Protocol: (§1) Agonistic activity was measured as described below.
(§2) Cell clone CHO-A21-Edg1#17 carries the transgenes human EDG1 (S1PR1) receptor (Accession number NP_001391.2), mitochondrially targeted Aequorin (active part corresponds to accession number 1SL8_A) and chimaeric Gaqi5=Gaq modified with the 5 C-terminal amino-acids replaced with those of the Gai protein (DCGLF). CHO-A2-S1P3 Mix is a cell pool ectopically expressing human EDG3 (S1PR3) receptor (Accession number NP_005217.2) mitochondrially targeted Aequorin (active part has a sequence similar to accession number AY601106.1) and GNA16 (Accession number NP_002059.3). Cell clone CHO-A21-EDG8#12 carries the transgenes human EDG8 (S1PR5) receptor (Acession number NP_110387.1), mitochondrially expressed Aequorin (active part corresponds to accession number 1SL8_A) and chimaeric Gaqi5 (Gaq modified to present the 5 last amino-acids of the Gai protein “DCGLF”; see above). Cells are grown to mid-log phase in culture medium (HAM's F12, 10% FBS, 100 IU/mL penicillin, 100 μg/mL streptomycin, 250 μg/mL Zeocin, 400 μg/mL G418). 18 hours prior to frozen cells preparation, the medium is changed to remove the antibiotics.
(§3) 18 hours prior to the test, vials of frozen cells are quickly thawed in a 37° C. water bath, cells are recovered by centrifugation and resuspended in assay buffer (DMEM/HAM's F12 with HEPES, without phenol red+0.1% fatty acid-free BSA). Cells are gently agitated in suspension overnight at RT in presence of 5 μM of Coelenterazine h (Molecular Probes). On the day of the test, cells are diluted to their final working concentrations in assay buffer and agitated in suspension for 1 h at RT. Cells are then placed in the luminescence reader (Hamamatsu Functional Drug Screening System 6000, FDSS6000). During cells incubation, compounds are prepared in 100% DMSO, and subsequently diluted in assay buffer. Compounds are then dispensed in the assay plate (black, clear-bottom, 384-well plate). After binding of agonists to the human S1P receptor the intracellular calcium concentration increases and binding of calcium to the Aequorin/Coelenterazine complex leads to an oxidation reaction of coelenterazine, which results in the production of Aequorin, coelenteramide, CO2 and light (Dmax 469 nm). The luminescent response is dependent on the agonist concentration. For agonist testing, 30 μL of cell suspension are injected on 30 μL of test compound or reference agonist in the assay plate. The resulting emission of light is recorded for 90 seconds using the FDSS6000. Dose response curves with the reference compounds are performed before testing the compounds. S1P is the reference agonist and JTE-013 the reference antagonist for S1P2.
(§4) Luminescence data are integrated over the reading interval for agonist and antagonist modes. To standardize the emission of recorded light (determination of the “100% signal”) across plates and across different experiments, some of the wells contain 100 μM digitonin or a saturating concentration of ATP (20 μM). Plates also contain the reference agonist at a concentration equivalent to the EC80 obtained during the test validation and the EC100. Dose-response data from test compounds were analyzed with XLfit (IDBS) software using nonlinear regression applied to a sigmoidal dose-response model and the following equation: […]

[2] = molecular target: T2, human EDG8 (S1PR5) receptor (Homo sapiens, UniProt Q9H228); experiment: Aequorin assay, agonist potency, CHO-A21-EDG8#12 cells; conditions: agonist mode, aequorin luminescence; read-out: S1P5 EC50 range #
T2 construct: carries the transgenes human EDG8 (S1PR5) receptor (Acession number NP_110387.1); expressed in transfected cells; host or cells: CHO-A21-EDG8#12 (CHO clone co-expressing mitochondrial aequorin and chimaeric Gaqi5)
Protocol: as §1, §2, §3, §4

[3] = molecular target: T3, S1P4 (Homo sapiens, UniProt O95977); experiment: Aequorin assay, agonist potency, S1P4; conditions: agonist mode, aequorin luminescence
T3 sequence (O95977 1-384): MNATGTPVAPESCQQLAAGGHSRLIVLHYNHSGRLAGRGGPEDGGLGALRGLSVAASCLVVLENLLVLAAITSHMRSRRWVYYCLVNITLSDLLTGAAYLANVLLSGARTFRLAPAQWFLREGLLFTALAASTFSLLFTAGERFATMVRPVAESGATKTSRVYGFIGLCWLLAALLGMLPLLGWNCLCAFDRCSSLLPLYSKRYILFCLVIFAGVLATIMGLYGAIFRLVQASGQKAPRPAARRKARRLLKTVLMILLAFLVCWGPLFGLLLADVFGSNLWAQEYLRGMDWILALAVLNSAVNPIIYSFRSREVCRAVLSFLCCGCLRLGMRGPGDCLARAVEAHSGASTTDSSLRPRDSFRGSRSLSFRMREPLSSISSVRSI
Protocol: as §1, §3, §4

T1 sequence (P21453 whole entry): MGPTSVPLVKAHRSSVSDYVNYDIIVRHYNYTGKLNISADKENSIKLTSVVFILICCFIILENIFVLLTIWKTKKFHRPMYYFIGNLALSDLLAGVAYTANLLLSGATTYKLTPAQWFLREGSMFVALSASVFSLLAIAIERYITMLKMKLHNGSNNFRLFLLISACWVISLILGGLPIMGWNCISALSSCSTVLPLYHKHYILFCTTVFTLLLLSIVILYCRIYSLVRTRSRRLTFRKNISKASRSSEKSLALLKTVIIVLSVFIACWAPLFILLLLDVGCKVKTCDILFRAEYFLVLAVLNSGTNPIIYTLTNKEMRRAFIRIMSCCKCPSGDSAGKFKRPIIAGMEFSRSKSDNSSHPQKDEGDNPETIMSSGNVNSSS
T2 sequence (Q9H228 whole entry): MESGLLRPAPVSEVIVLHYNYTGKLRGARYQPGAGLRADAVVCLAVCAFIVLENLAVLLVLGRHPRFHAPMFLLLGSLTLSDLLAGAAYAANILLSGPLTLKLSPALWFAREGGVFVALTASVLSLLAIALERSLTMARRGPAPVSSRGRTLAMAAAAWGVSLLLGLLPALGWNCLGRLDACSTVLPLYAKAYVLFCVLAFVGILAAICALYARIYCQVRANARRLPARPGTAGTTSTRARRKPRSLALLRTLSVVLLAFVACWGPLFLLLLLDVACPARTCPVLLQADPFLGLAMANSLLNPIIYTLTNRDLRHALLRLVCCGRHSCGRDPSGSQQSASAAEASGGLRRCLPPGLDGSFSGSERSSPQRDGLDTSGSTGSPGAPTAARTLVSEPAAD

| EC50 [1] [nM] | EC50 [2] [nM] | EC50 [3] [nM] | Structure (SMILES) |
| --- | --- | --- | --- |
| > 1000 | ≤ 10 | < 1000 | CC1CCC(C#Cc2ccc3c(c2)CC2(C3)CN(CC3(C(=O)O)CC3)C2)CC1 (mixture of isomers) [Example 115, 1-((5′-((4-methylcyclohexyl)ethynyl)-1′,3′-dihydrospiro[azetidine-3,2′-inden]-1-yl)methyl)cyclopropanecarboxylic acid] |
| – | 1000 to 10000 | – | CCOc1ccc(C#Cc2ccc3c(c2)CC2(C3)CN(CC3(C(=O)O)CC3)C2)cc1 [Example 1, 1-((5′-((4-ethoxyphenyl)ethynyl)-1′,3′-dihydrospiro[azetidine-3,2′-inden]-1-yl)methyl)cyclopropanecarboxylic acid compound with 2,2,2-trifluoroacetic acid (1:1)] |
| > 1000 | 1000 to 10000 | < 1000 | CCCc1ccc(COc2ccc3c(c2)CC2(C3)CN(CC3(C(=O)O)CC3)C2)c(OC)c1 [Example 2, 1-((5′-((2-methoxy-4-propylbenzyl)oxy)-1′,3′-dihydrospiro[azetidine-3,2′-inden]-1-yl)methyl)cyclopropanecarboxylic acid] |
| > 1000 | 1000 to 10000 | < 1000 | CCCCc1ccc(COc2ccc3c(c2)CC2(C3)CN(CC(=O)O)C2)c(Cl)c1 [Example 3, 2-(5′-((4-butyl-2-chlorobenzyl)oxy)-1′,3′-dihydrospiro[azetidine-3,2′-inden]-1-yl)acetic acid] |
| > 1000 | 100 to 1000 | < 1000 | CCc1ccc(COc2ccc3c(c2)CC2(C3)CN(CC(=O)O)C2)c(Cl)c1 [Example 4, 2-(5′-((2-chloro-4-ethylbenzyl)oxy)-1′,3′-dihydrospiro[azetidine-3,2′-inden]-1-yl)acetic acid] |
| > 1000 | 1000 to 10000 | > 1000 | O=C(O)C1CC(N2CC3(Cc4ccc(OCC5CCCOC5)cc4C3)C2)C1 (stereo not shown) [Example 5, 3-(5′-((tetrahydro-2H-pyran-3-yl)methoxy)-1′,3′-dihydrospiro[azetidine-3,2′-inden]-1-yl)cyclobutanecarboxylic acid] |
| > 1000 | 100 to 1000 | > 1000 | COc1cccc(Cl)c1COc1ccc2c(c1)CC1(C2)CN(CC(=O)O)C1 [Example 9, 2,2,2-trifluoroacetic acid compound with 2-(5′-((2-chloro-6-methoxybenzyl)oxy)-1′,3′-dihydrospiro[azetidine-3,2′-inden]-1-yl)acetic acid (1:1)] |
| > 1000 | 100 to 1000 | < 1000 | COc1cccc(F)c1COc1ccc2c(c1)CC1(C2)CN(CC(=O)O)C1 [Example 10, 2,2,2-trifluoroacetic acid compound with 2-(5′-((2-fluoro-6-methoxybenzyl)oxy)-1′,3′-dihydrospiro[azetidine-3,2′-inden]-1-yl)acetic acid (1:1)] |
| > 1000 | 10 to 100 | < 1000 | O=C(O)CN1CC2(Cc3ccc(OCc4ccccc4C(F)(F)F)cc3C2)C1 [Example 12, 2,2,2-trifluoroacetic acid compound with 2-(5′-((2-(trifluoromethyl)benzyl)oxy)-1′,3′-dihydrospiro[azetidine-3,2′-inden]-1-yl)acetic acid (1:1)] |
| > 1000 | 10 to 100 | < 1000 | O=C(O)CN1CC2(Cc3ccc(OCc4c(F)cccc4F)cc3C2)C1 [Example 13, 2,2,2-trifluoroacetic acid compound with 2-(5′-((2,6-difluorobenzyl)oxy)-1′,3′-dihydrospiro[azetidine-3,2′-inden]-1-yl)acetic acid (1:1)] |
| > 1000 | ≤ 10 | < 1000 | Cc1cccc(F)c1COc1ccc2c(c1)CC1(C2)CN(CC(=O)O)C1 [Example 17, 2,2,2-trifluoroacetic acid compound with 2-(5′-((2-fluoro-6-methylbenzyl)oxy)-1′,3′-dihydrospiro[azetidine-3,2′-inden]-1-yl)acetic acid (1:1)] |
| > 1000 | ≤ 10 | < 1000 | O=C(O)CN1CC2(Cc3ccc(OCc4c(F)cccc4Cl)cc3C2)C1 [Example 18, 2,2,2-trifluoroacetic acid compound with 2-(5′-((2-chloro-6-fluorobenzyl)oxy)-1′,3′-dihydrospiro[azetidine-3,2′-inden]-1-yl)acetic acid (1:1)] |
| > 1000 | ≤ 10 | < 1000 | O=C(O)CN1CC2(Cc3ccc(OCc4c(F)cccc4C(F)(F)F)cc3C2)C1 [Example 19, 2-(5′-((2-fluoro-6-(trifluoromethyl)benzyl)oxy)-1′,3′-dihydrospiro[azetidine-3,2′-inden]-1-yl)acetic acid] |
| > 1000 | ≤ 10 | < 1000 | O=C(O)CN1CC2(Cc3ccc(OCc4c(Cl)cccc4C(F)(F)F)cc3C2)C1 [Example 20, 2,2,2-trifluoroacetic acid compound with 2-(5′-((2-chloro-6-(trifluoromethyl)benzyl)oxy)-1′,3′-dihydrospiro[azetidine-3,2′-inden]-1-yl)acetic acid (1:1)] |
| > 1000 | ≤ 10 | < 1000 | CCc1cccc(F)c1COc1ccc2c(c1)CC1(C2)CN(CC(=O)O)C1 [Example 21, 2-(5′-((2-ethyl-6-fluorobenzyl)oxy)-1′,3′-dihydrospiro[azetidine-3,2′-inden]-1-yl)acetic acid] |
| > 1000 | 10 to 100 | < 1000 | O=C(O)CN1CC2(Cc3ccc(OCc4ccc(Br)cc4Cl)cc3C2)C1 [Example 22, 2-(5′-((4-bromo-2-chlorobenzyl)oxy)-1′,3′-dihydrospiro[azetidine-3,2′-inden]-1-yl)acetic acid] |
| > 1000 | ≤ 10 | < 1000 | O=C(O)CN1CC2(Cc3ccc(OCc4cc(F)ccc4C(F)(F)F)cc3C2)C1 [Example 27, 2-(5′-((5-fluoro-2-(trifluoromethyl)benzyl)oxy)-1′,3′-dihydrospiro[azetidine-3,2′-inden]-1-yl)acetic acid] |
| > 1000 | 1000 to 10000 | > 1000 | COc1cccc(F)c1COc1ccc2c(c1)CC1(C2)CN(CC2(C(=O)O)CC2)C1 [Example 30, 1-((5′-((2-fluoro-6-methoxybenzyl)oxy)-1′,3′-dihydrospiro[azetidine-3,2′-inden]-1-yl)methyl)cyclopropanecarboxylic acid compound with 2,2,2-trifluoroacetic acid (1:1)] |
| > 1000 | 100 to 1000 | < 1000 | COc1cccc(Cl)c1COc1ccc2c(c1)CC1(C2)CN(CC2(C(=O)O)CC2)C1 [Example 31, 1-((5′-((2-chloro-6-methoxybenzyl)oxy)-1′,3′-dihydrospiro[azetidine-3,2′-inden]-1-yl)methyl)cyclopropanecarboxylic acid compound with 2,2,2-trifluoroacetic acid (1:1)] |
